Test results from patent US20240197652A1, “KETAMINE IN THE TREATMENT OF […]” (Awakn LS Europe Holdings Limited, priority 2021, published 2024).

Key:
Type in all cases: in vivo, human
[1] = Mean plasma ketamine, HNK and norketamine, all subjects of Examples 7-10; conditions: 100 mg racemic ketamine sublingual, analyte = label; for concentration at 10 min / concentration at 20 min / concentration at 30 min / concentration at 40 min / concentration at 50 min / concentration at 60 min / concentration at 70 min / concentration at 80 min / concentration at 90 min: human, plasma, other: sublingual
Procedure: Blood samples were collected every 10 minutes, from 0 minutes (the time of administration) to 90 minutes post-administration. Blood samples at each time point were analysed to determine plasma levels of (2S,6S;2R,6R)-Hydroxynorketamine (HNK).
FIGS. 11-13 illustrate ketamine, HNK, and norketamine levels, respectively, for all subjects of EXAMPLES 7-10, while FIG. 14 illustrates the mean plasma levels of ketamine, HNK, and norketamine for all subjects of EXAMPLES 7-10. Results indicated a mean plasma concentration of ketamine of 104.87 ng/ml at 10 minutes, 230.11 ng/ml at 20 minutes, 267.08 ng/ml at 30 minutes, 271.62 ng/ml at 40 minutes, 288.48 ng/ml at 50 minutes, 272.42 ng/ml at 60 minutes, 263.40 ng/ml at 70 minutes, 227.50 ng/ml at 80 minutes, and 176.91 ng/ml at 90 minutes. Mean HNK was 0 at 10 minutes, 12.22 ng/ml at 20 minutes, 56.73 ng/ml at 30 minutes, 79.10 ng/ml at 40 minutes, 126.20 ng/ml at 50 minutes, 198.87 ng/ml at 60 minutes, 221.08 ng/ml at 70 minutes, 209.14 ng/ml at 80 minutes, and 217.32 ng/ml at 90 minutes. Mean norketamine was 1.92 at 10 minutes, 57.39 ng/ml at 20 minutes, 141.78 ng/ml at 30 minutes, 286.02 ng/ml at 40 minutes, 505.15 ng/ml at 50 minutes, 646.73 ng/ml at 60 minutes, 750.57 ng/ml at 70 minutes, 723.79 ng/ml at 80 minutes, and 653.94 ng/ml at 90 minutes.

[2] = system: subjects with gaming disorder; test: Adverse events, KSET, Example 9; conditions: three gaming disorder subjects; 100 mg racemic ketamine sublingual
[3] = system: subjects with CSBD; test: Hours of pornography viewed per day, Example 10; conditions: for hours of pornography watched daily at 2-week follow up: after 100 mg racemic ketamine sublingual; for hours of pornography watched daily, pre-administration: baseline before 100 mg racemic ketamine sublingual; for % change in hours of pornography viewed: pre-administration to 2-week follow up, 100 mg racemic ketamine sublingual
Procedure: A study was completed on the use of ketamine to treat CSBD. Subjects were assessed for CSBD using the Problematic Pornography Use Scale (PPUS) and were included if they received an PPUS score greater than 3. Three subjects in total were included (CSB1-CSB3). All three were administered sublingual lozenges comprising 100 mg of racemic ketamine.
The treatment protocol commenced in the same way as disclosed in the ketamine in subjects with gambling disorder study completed in EXAMPLE 7, with the exceptions outlined as follows: No behavioural tasks were completed. Self-report measures completed during EXAMPLE 10 included the Emotional Intimacy Measure, the Childhood Trauma Questionnaire, the Generalised Anxiety Disorder-7 (GAD-7), the Morningness-Eveningness Questionnaire (MEQ), and the Problematic Pornography Questionnaire (PPQ), the Acceptance and Action Questionnaire, and the Psychological and Interpersonal Relationship Scales (PAIRS).

[4] = system: subjects with binge eating disorder; test: Adverse events, KSET, Example 8; conditions: three binge eating disorder subjects; 100 mg racemic ketamine sublingual
[5] = system: subjects with gambling disorder; test: Cue reactivity task: picture pleasure rating and gambling desire rating, Example 7
[6] = system: total plasma ghrelin; test: Total plasma ghrelin, Example 8; conditions: for total plasma ghrelin at 90 minutes post-lozenge / % change in total ghrelin: 100 mg racemic ketamine sublingual; for total plasma ghrelin, pre-administration: baseline before 100 mg racemic ketamine sublingual; for % change in total ghrelin: pre-administration to 90 minutes post-lozenge
Procedure: (§1) Blood samples were collected from all three subjects. Blood samples were analysed to determine ketamine and ketamine metabolite levels, as well as the hormones leptin and ghrelin. Self-report measures were conducted.
(§2) The treatment protocol commenced in substantially the same way as disclosed in the ketamine in subjects with gambling disorder study completed in EXAMPLE 7, with the exceptions outlined as follows: No behavioural tasks were completed. Blood samples collected every 10 minutes from the time of administration to 90 minutes post-administration were additionally analysed for leptin and ghrelin. Self-report measures included the Binge Eating Scale, the Adult Attachment Interview (AAI), a 20 question interview about the subject's recollections of their childhood (Sykes and Turner, 2015); the Childhood Trauma Questionnaire; the Morningness-Eveningness Questionnaire (MEQ), a 19-item questionnaire designed to assess when a respondent prefers to wake up or start sleep (American Thoracic Society, 2022); the DSM-5 Binge Eating Disorder diagnostic criteria; and the SPSRQ.
(§3) Changes in ghrelin and leptin were measured. Ghrelin stimulates appetite and food intake, increases fat deposition, and releases growth hormone. Obese binge eating disorder subjects often have reduced plasma ghrelin, possibly due to the downregulation of ghrelin from excess eating or body fat (Atalayer et al. 2013). Leptin forms a negative feedback loop between fat cells and the hypothalamus, wherein leptin secretion signals the hypothalamus to inhibit food intake and increase energy expenditure. Increased leptin may aid in reducing appetite cravings associated with binge eating disorder (Obradovic et al. 2021).

[7] = system: total plasma leptin; test: Total plasma leptin, Example 8; conditions: for total plasma leptin at 90 minutes post-lozenge / % change in total leptin: 100 mg racemic ketamine sublingual; for total plasma leptin, pre-administration: baseline before 100 mg racemic ketamine sublingual; for % change in total leptin: pre-administration to 90 minutes post-lozenge
Procedure: as §1, §2, §3

[8] = baseline before 100 mg racemic ketamine sublingual
[9] = one-week follow up after 100 mg racemic ketamine sublingual
[10] = two-week follow up after 100 mg racemic ketamine sublingual

SMILES: NC1(c2ccccc2Cl)CCCCC1=O (racemic) [Norketamine, (R,S)-norketamine]
- concentration at 10 min ([1]; 10 minutes post-administration): 1.92 ng/mL
- concentration at 20 min ([1]; 20 minutes post-administration): 57.4 ng/mL
- concentration at 30 min ([1]; 30 minutes post-administration): 142 ng/mL
- concentration at 40 min ([1]; 40 minutes post-administration): 286 ng/mL
- concentration at 50 min ([1]; 50 minutes post-administration): 505 ng/mL
- concentration at 60 min ([1]; 60 minutes post-administration): 647 ng/mL
- concentration at 70 min ([1]; 70 minutes post-administration): 751 ng/mL
- concentration at 80 min ([1]; 80 minutes post-administration): 724 ng/mL
- concentration at 90 min ([1]; 90 minutes post-administration): 654 ng/mL

SMILES: CNC1(c2ccccc2Cl)CCCCC1=O (racemic) [ketamine, 2-(2-chlorophenyl)-2-(methylamino)-cyclohexanone]
- concentration at 10 min ([1]; 10 minutes post-administration): 105 ng/mL
- concentration at 20 min ([1]; 20 minutes post-administration): 230 ng/mL
- concentration at 30 min ([1]; 30 minutes post-administration): 267 ng/mL
- concentration at 40 min ([1]; 40 minutes post-administration): 272 ng/mL
- concentration at 50 min ([1]; 50 minutes post-administration): 288 ng/mL
- concentration at 60 min ([1]; 60 minutes post-administration): 272 ng/mL
- concentration at 70 min ([1]; 70 minutes post-administration): 263 ng/mL
- concentration at 80 min ([1]; 80 minutes post-administration): 228 ng/mL
- concentration at 90 min ([1]; 90 minutes post-administration): 177 ng/mL
- course of adverse events [2]: All adverse events were transient, and resolved two hours post-lozenge
- overall tolerability [2]: well-tolerated, with no drop-outs
- unexpected adverse reactions (KSET) [2]: No unexpected adverse reactions were observed
- hours of pornography watched daily at 2-week follow up ([3]; subject CSB1): 0.5 h
- hours of pornography watched daily, pre-administration ([3]; subject CSB1): 2 h
- % change in hours of pornography viewed ([3]; subject CSB1): −75%
- hours of pornography watched daily at 2-week follow up ([3]; subject CSB2): 3 h
- hours of pornography watched daily, pre-administration ([3]; subject CSB2): 4 h
- % change in hours of pornography viewed ([3]; subject CSB2): −25%
- hours of pornography watched daily at 2-week follow up ([3]; subject CSB3): 1 h
- hours of pornography watched daily, pre-administration ([3]; subject CSB3): 1 h
- course of adverse events [4]: All adverse events were transient, and resolved two hours post-lozenge
- overall tolerability [4]: well-tolerated, with no drop-outs
- unexpected adverse reactions (KSET) [4]: no unexpected adverse reactions were observed
- gambling desire rating, mean [5, 8]: 2.25
- picture pleasure rating, mean [5, 8]: 3.25
- gambling desire rating, mean [5, 9]: −0.25
- picture pleasure rating, mean [5, 9]: 1.33
- gambling desire rating, mean [5, 10]: −0.25
- picture pleasure rating, mean [5, 10]: −0.83
- total plasma ghrelin at 90 minutes post-lozenge ([6]; subject BE1): 310 pg/mL
- total plasma ghrelin, pre-administration ([6]; subject BE1): 254 pg/mL
- % change in total ghrelin ([6]; subject BE1): +22.05%
- total plasma ghrelin at 90 minutes post-lozenge ([6]; subject BE2): 231 pg/mL
- total plasma ghrelin, pre-administration ([6]; subject BE2): 198 pg/mL
- % change in total ghrelin ([6]; subject BE2): +16.67%
- total plasma ghrelin at 90 minutes post-lozenge ([6]; subject BE3): 274 pg/mL
- total plasma ghrelin, pre-administration ([6]; subject BE3): 291 pg/mL
- % change in total ghrelin ([6]; subject BE3): −5.84%
- total plasma leptin at 90 minutes post-lozenge ([7]; subject BE1): 9.11 ng/mL
- total plasma leptin, pre-administration ([7]; subject BE1): 7.10 ng/mL
- % change in total leptin ([7]; subject BE1): +28.31%
- total plasma leptin at 90 minutes post-lozenge ([7]; subject BE2): 27.98 ng/mL
- total plasma leptin, pre-administration ([7]; subject BE2): 21.88 ng/mL
- % change in total leptin ([7]; subject BE2): +27.88%
- total plasma leptin at 90 minutes post-lozenge ([7]; subject BE3): 11.23 ng/mL
- total plasma leptin, pre-administration ([7]; subject BE3): 12.36 ng/mL
- % change in total leptin ([7]; subject BE3): −9.14%

SMILES: N[C@@]1(c2ccccc2Cl)CCC[C@@H](O)C1=O [HNK, (2S,6S;2R,6R)-hydroxynorketamine]
- mean plasma concentration ([1]; 10 minutes post-administration): 0 ng/mL
- mean plasma concentration ([1]; 20 minutes post-administration): 12.22 ng/mL
- mean plasma concentration ([1]; 30 minutes post-administration): 56.73 ng/mL
- mean plasma concentration ([1]; 40 minutes post-administration): 79.10 ng/mL
- mean plasma concentration ([1]; 50 minutes post-administration): 126.20 ng/mL
- mean plasma concentration ([1]; 60 minutes post-administration): 198.87 ng/mL
- mean plasma concentration ([1]; 70 minutes post-administration): 221.08 ng/mL
- mean plasma concentration ([1]; 80 minutes post-administration): 209.14 ng/mL
- mean plasma concentration ([1]; 90 minutes post-administration): 217.32 ng/mL
